Test system: sGC (cGMP)
Assay: Phase I, healthy male subjects, 7 days once daily inhalation: cGMP in blood samples (C-4.1)
Format: in vivo, human
Conditions: for time of cGMP peak after administration: first inhalation; for mean peak cGMP: after repeated dosing for 7 days; for peak mean±SD cGMP: first profile day
Experimental: Healthy White male subjects, aged 18 to 45 years and with a body mass index (BMI) above/equal 18.5 and below/equal 29.9 kg/m2 were treated in a clinical pharmacological phase I study on seven days with inhaled once daily doses of 480 μg or 1000 μg or 2000 μg (2 capsules of 1000 μg) (nominal dose) of dry powder formulations of example 2 or Placebo. The subjects inhaled the drug powder from capsules (see under D-1, e.g. tables 22 and 23) inserted into a handheld inhalation device by one deep inhalative breath. The dry powder formulation of the drug is dispersed into the airstream and fine particles are transported into the deep parts of the lung where it is intended to cause a vasodilation of the blood vessels in PH patients for a substantial reduction of increased blood pressure in the central pulmonary blood vessels in PAH patients or other subtypes of PH. This effect cannot be shown in subjects with healthy lungs. In addition inhaled drug causes a dilation of the bronchial airways and thus also improves disease states of lung diseases in PH patients with pathological bronchoconstriction. This effect was measured via bodyplethysmography as reduction of Specific Airway Resistance in healthy subjects. After the deep inhalative breath the subjects hold breath for 2 seconds, so that the dry powder drug condenses from the airstream onto the surface of the deeper lung areas where it is deposited close to its site of intended pharmacological action. The drug dissolutes over the day and equilibrates the lung via lining fluid.
Drug activity in healthy men was controlled in the healthy subjects by analysing blood samples for cGMP, the immediate product of sGC pharmacological activation prior after the first and after the last drug inhalation of the 7 days treatment in comparison to measurements on the pretreatment day for all doses.
This prolonged activity in comparison to systemic drug concentration is caused by the mode of administration as inhaled dry powder, that deposits drug in the deeper part of the lung leading to an active drug concentration over 24 h after a once daily inhalation.
At 10 days after the first treatment, mean cGMP concentrations had returned close to the concentration observed at the pre-dosing day.

O=C(O)c1ccc(CCN(CCc2ccccc2OCc2ccc(-c3ccc(C(F)(F)F)cc3)cc2Cl)[C@H]2CCCc3nc(C(=O)O)ccc32)cc1 [example 2, (5S)-{[2-(4-Carboxyphenyl)ethyl][2-(2-{[3-chloro-4′-(trifluoromethyl)biphenyl-4-yl]methoxy}phenyl)-ethyl]amino}-5,6,7,8-tetrahydroquinoline-2-carboxylic acid]
cGMP, mean ± SD (1000 μg, 5 D 00 H 00 M (trough)): 8.50 ± 2.13 nmol/L
cGMP, mean ± SD (1000 μg, 6 D 00 H 00 M (trough)): 9.23 ± 2.12 nmol/L
cGMP, mean ± SD (1000 μg, 7 D 00 H 00 M (trough)): 9.66 ± 2.30 nmol/L
cGMP, mean ± SD (1000 μg, 7 D 02 H 00 M): 11.84 ± 2.18 nmol/L
cGMP, mean ± SD (1000 μg, 7 D 04 H 00 M): 15.76 ± 2.29 nmol/L
cGMP, mean ± SD (1000 μg, 7 D 06 H 00 M): 16.70 ± 2.96 nmol/L
cGMP, mean ± SD (1000 μg, 7 D 08 H 00 M): 15.91 ± 3.86 nmol/L
cGMP, mean ± SD (1000 μg, 7 D 12 H 00 M): 14.10 ± 4.55 nmol/L
cGMP, mean ± SD (1000 μg, 7 D 15 H 00 M): 12.91 ± 3.72 nmol/L
cGMP, mean ± SD (1000 μg, 8 D 00 H 00 M): 9.38 ± 3.11 nmol/L
cGMP, mean ± SD (1000 μg, 8 D 12 H 00 M): 7.21 ± 2.24 nmol/L
cGMP, mean ± SD (1000 μg, 9 D 00 H 00 M): 6.29 ± 1.86 nmol/L
cGMP, mean ± SD (1000 μg, 9 D 12 H 00 M): 5.93 ± 1.39 nmol/L
cGMP, mean ± SD (1000 μg, 10 D 00 H 00 M): 6.33 ± 2.30 nmol/L
cGMP, mean ± SD (1000 μg, −0 D 09 H 00 M (baseline)): 4.18 ± 0.82 nmol/L
cyclic guanosine monophosphate changes from baseline (1000 μg, −0 D 09 H 00 M (pretreatment day)): -0.84 ± 2.04 nmol/L
cGMP, mean ± SD (1000 μg, −0 D 12 H 00 M (baseline)): 4.26 ± 0.99 nmol/L
cyclic guanosine monophosphate changes from baseline (1000 μg, −0 D 12 H 00 M (pretreatment day)): -0.77 ± 1.72 nmol/L
cGMP, mean ± SD (1000 μg, −0 D 16 H 00 M (baseline)): 4.59 ± 1.06 nmol/L
cyclic guanosine monophosphate changes from baseline (1000 μg, −0 D 16 H 00 M (pretreatment day)): -0.43 ± 1.49 nmol/L
cGMP, mean ± SD (1000 μg, −0 D 18 H 00 M (baseline)): 4.16 ± 0.92 nmol/L
cyclic guanosine monophosphate changes from baseline (1000 μg, −0 D 18 H 00 M (pretreatment day)): -0.87 ± 1.44 nmol/L
cGMP, mean ± SD (1000 μg, −0 D 20 H 00 M (baseline)): 4.78 ± 1.37 nmol/L
cyclic guanosine monophosphate changes from baseline (1000 μg, −0 D 20 H 00 M (pretreatment day)): -0.24 ± 1.75 nmol/L
cGMP, mean ± SD (1000 μg, −0 D 22 H 00 M (baseline)): 5.10 ± 1.46 nmol/L
cyclic guanosine monophosphate changes from baseline (1000 μg, −0 D 22 H 00 M (pretreatment day)): 0.08 ± 1.41 nmol/L
cGMP, mean ± SD (1000 μg, −1 D 02 H 00 M (baseline)): 5.02 ± 1.59 nmol/L
time of cGMP peak after administration (2000 μg dose): 8 h
cyclic guanosine monophosphate changes from baseline (2000 μg once daily inhaled, 0 D 02 H 00 M): 4.78 ± 1.35 nmol/L
cyclic guanosine monophosphate changes from baseline (2000 μg once daily inhaled, 0 D 04 H 00 M): 9.18 ± 2.50 nmol/L
cyclic guanosine monophosphate changes from baseline (2000 μg once daily inhaled, 0 D 06 H 00 M): 11.04 ± 3.21 nmol/L
cyclic guanosine monophosphate changes from baseline (2000 μg once daily inhaled, 0 D 08 H 00 M): 11.69 ± 2.78 nmol/L
cyclic guanosine monophosphate changes from baseline (2000 μg once daily inhaled, 0 D 12 H 00 M): 8.56 ± 2.19 nmol/L
cyclic guanosine monophosphate changes from baseline (2000 μg once daily inhaled, 0 D 15 H 00 M): 7.54 ± 2.32 nmol/L
cyclic guanosine monophosphate changes from baseline (2000 μg once daily inhaled, 1 D 00 H 00 M): 3.48 ± 0.90 nmol/L
cyclic guanosine monophosphate changes from baseline (2000 μg once daily inhaled, 2 D 00 H 00 M): 1.57 ± 0.86 nmol/L
cyclic guanosine monophosphate changes from baseline (2000 μg once daily inhaled, 3 D 00 H 00 M): 5.17 ± 1.51 nmol/L
cyclic guanosine monophosphate changes from baseline (2000 μg once daily inhaled, 4 D 00 H 00 M): 9.33 ± 2.55 nmol/L
cyclic guanosine monophosphate changes from baseline (2000 μg once daily inhaled, 5 D 00 H 00 M): 11.10 ± 3.49 nmol/L
cyclic guanosine monophosphate changes from baseline (2000 μg once daily inhaled, 6 D 00 H 00 M): 11.71 ± 2.66 nmol/L
cyclic guanosine monophosphate changes from baseline (2000 μg once daily inhaled, 7 D 00 H 00 M): 11.36 ± 3.37 nmol/L
cyclic guanosine monophosphate changes from baseline (2000 μg once daily inhaled, 7 D 02 H 00 M): 17.33 ± 4.18 nmol/L
cyclic guanosine monophosphate changes from baseline (2000 μg once daily inhaled, 7 D 04 H 00 M): 22.23 ± 4.75 nmol/L
cyclic guanosine monophosphate changes from baseline (2000 μg once daily inhaled, 7 D 06 H 00 M): 27.39 ± 6.93 nmol/L
cyclic guanosine monophosphate changes from baseline (2000 μg once daily inhaled, 7 D 08 H 00 M): 27.83 ± 7.77 nmol/L
cyclic guanosine monophosphate changes from baseline (2000 μg once daily inhaled, 7 D 12 H 00 M): 23.33 ± 5.53 nmol/L
cyclic guanosine monophosphate changes from baseline (2000 μg once daily inhaled, 7 D 15 H 00 M): 19.08 ± 4.95 nmol/L
cyclic guanosine monophosphate changes from baseline (2000 μg once daily inhaled, 8 D 00 H 00 M): 11.17 ± 3.69 nmol/L
cyclic guanosine monophosphate changes from baseline (2000 μg once daily inhaled, 8 D 12 H 00 M): 8.02 ± 2.45 nmol/L
cyclic guanosine monophosphate changes from baseline (2000 μg once daily inhaled, 9 D 00 H 00 M): 5.64 ± 1.36 nmol/L
cyclic guanosine monophosphate changes from baseline (2000 μg once daily inhaled, 9 D 12 H 00 M): 4.57 ± 2.15 nmol/L
cyclic guanosine monophosphate changes from baseline (2000 μg once daily inhaled, 10 D 00 H 00 M): 3.26 ± 1.07 nmol/L
cyclic guanosine monophosphate changes from baseline (2000 μg, 0 D 00 H 00 M): 0.68 ± 1.14 nmol/L
cGMP, mean ± SD (2000 μg, 0 D 00 H 00 M (baseline)): 4.83 ± 2.52 nmol/L
cGMP, mean ± SD (2000 μg, 0 D 02 H 00 M): 9.61 ± 3.65 nmol/L
cGMP, mean ± SD (2000 μg, 0 D 04 H 00 M): 14.01 ± 4.51 nmol/L
cGMP, mean ± SD (2000 μg, 0 D 06 H 00 M): 15.88 ± 5.09 nmol/L
cGMP, mean ± SD (2000 μg, 0 D 08 H 00 M): 16.52 ± 4.24 nmol/L
cGMP, mean ± SD (2000 μg, 0 D 12 H 00 M): 13.39 ± 4.01 nmol/L
cGMP, mean ± SD (2000 μg, 0 D 15 H 00 M): 12.38 ± 4.17 nmol/L
cGMP, mean ± SD (2000 μg, 1 D 00 H 00 M): 8.31 ± 2.88 nmol/L
cGMP, mean ± SD (2000 μg, 2 D 00 H 00 M): 6.40 ± 2.09 nmol/L
cGMP, mean ± SD (2000 μg, 3 D 00 H 00 M (trough)): 10.00 ± 3.51 nmol/L
cGMP, mean ± SD (2000 μg, 4 D 00 H 00 M (trough)): 14.17 ± 4.36 nmol/L
cGMP, mean ± SD (2000 μg, 5 D 00 H 00 M (trough)): 15.93 ± 5.52 nmol/L
cGMP, mean ± SD (2000 μg, 6 D 00 H 00 M (trough)): 16.54 ± 4.60 nmol/L
cGMP, mean ± SD (2000 μg, 7 D 00 H 00 M (trough)): 16.19 ± 5.02 nmol/L
cGMP, mean ± SD (2000 μg, 7 D 02 H 00 M): 22.17 ± 6.07 nmol/L
cGMP, mean ± SD (2000 μg, 7 D 04 H 00 M): 27.07 ± 7.01 nmol/L
cGMP, mean ± SD (2000 μg, 7 D 06 H 00 M): 32.22 ± 8.83 nmol/L
cGMP, mean ± SD (2000 μg, 7 D 08 H 00 M): 32.67 ± 9.48 nmol/L
cGMP, mean ± SD (2000 μg, 7 D 12 H 00 M): 28.17 ± 7.50 nmol/L
cGMP, mean ± SD (2000 μg, 7 D 15 H 00 M): 23.91 ± 6.59 nmol/L
cGMP, mean ± SD (2000 μg, 8 D 00 H 00 M): 16.00 ± 5.77 nmol/L
cGMP, mean ± SD (2000 μg, 8 D 12 H 00 M): 12.86 ± 3.96 nmol/L
cGMP, mean ± SD (2000 μg, 9 D 00 H 00 M): 10.48 ± 3.49 nmol/L
cGMP, mean ± SD (2000 μg, 9 D 12 H 00 M): 9.40 ± 3.10 nmol/L
cGMP, mean ± SD (2000 μg, 10 D 00 H 00 M): 8.09 ± 2.81 nmol/L
cGMP, mean ± SD (2000 μg, −0 D 09 H 00 M (baseline)): 3.98 ± 1.91 nmol/L
cyclic guanosine monophosphate changes from baseline (2000 μg, −0 D 09 H 00 M (pretreatment day)): -0.18 ± 0.90 nmol/L
cGMP, mean ± SD (2000 μg, −0 D 12 H 00 M (baseline)): 4.43 ± 2.24 nmol/L
cyclic guanosine monophosphate changes from baseline (2000 μg, −0 D 12 H 00 M (pretreatment day)): 0.28 ± 0.97 nmol/L
cGMP, mean ± SD (2000 μg, −0 D 16 H 00 M (baseline)): 4.44 ± 2.15 nmol/L
cyclic guanosine monophosphate changes from baseline (2000 μg, −0 D 16 H 00 M (pretreatment day)): 0.29 ± 1.17 nmol/L
cGMP, mean ± SD (2000 μg, −0 D 18 H 00 M (baseline)): 4.32 ± 1.33 nmol/L
cyclic guanosine monophosphate changes from baseline (2000 μg, −0 D 18 H 00 M (pretreatment day)): 0.17 ± 0.78 nmol/L
cGMP, mean ± SD (2000 μg, −0 D 20 H 00 M (baseline)): 4.63 ± 1.86 nmol/L
cyclic guanosine monophosphate changes from baseline (2000 μg, −0 D 20 H 00 M (pretreatment day)): 0.48 ± 0.71 nmol/L
cGMP, mean ± SD (2000 μg, −0 D 22 H 00 M (baseline)): 4.81 ± 2.22 nmol/L
cyclic guanosine monophosphate changes from baseline (2000 μg, −0 D 22 H 00 M (pretreatment day)): 0.66 ± 0.79 nmol/L
cGMP, mean ± SD (2000 μg, −1 D 02 H 00 M (baseline)): 4.16 ± 1.70 nmol/L
start of cGMP increase after first inhalation (480, 1000, 2000 μg): approximately 2 h
time of cGMP peak after administration (480 and 1000 μg dose): 6 h
mean peak cGMP (480 μg): 11.96 ± 2.80 nmol/L
mean peak cGMP (1000 μg): 16.70 ± 2.96 nmol/L
mean peak cGMP (2000 μg): 32.67 ± 9.48 nmol/L
peak mean±SD cGMP (480 μg): 8.84 ± 1.35 nmol/L
peak mean±SD cGMP (1000 μg): 11.69 ± 1.86 nmol/L
peak mean±SD cGMP (2000 μg): 16.52 ± 4.24 nmol/L
